Assays:
MMP-9 = MMP-9 (Homo sapiens, UniProt P14780); experiment: K(obs) of individual phage substrates (set of 1369); type: biochemical; details: MMP9
MMP-2 [1] = biological target: T1, MMP-2 (Homo sapiens, UniProt P08253); experiment: as above; type: biochemical; details: MMP2
T1 sequence (P08253 110-660): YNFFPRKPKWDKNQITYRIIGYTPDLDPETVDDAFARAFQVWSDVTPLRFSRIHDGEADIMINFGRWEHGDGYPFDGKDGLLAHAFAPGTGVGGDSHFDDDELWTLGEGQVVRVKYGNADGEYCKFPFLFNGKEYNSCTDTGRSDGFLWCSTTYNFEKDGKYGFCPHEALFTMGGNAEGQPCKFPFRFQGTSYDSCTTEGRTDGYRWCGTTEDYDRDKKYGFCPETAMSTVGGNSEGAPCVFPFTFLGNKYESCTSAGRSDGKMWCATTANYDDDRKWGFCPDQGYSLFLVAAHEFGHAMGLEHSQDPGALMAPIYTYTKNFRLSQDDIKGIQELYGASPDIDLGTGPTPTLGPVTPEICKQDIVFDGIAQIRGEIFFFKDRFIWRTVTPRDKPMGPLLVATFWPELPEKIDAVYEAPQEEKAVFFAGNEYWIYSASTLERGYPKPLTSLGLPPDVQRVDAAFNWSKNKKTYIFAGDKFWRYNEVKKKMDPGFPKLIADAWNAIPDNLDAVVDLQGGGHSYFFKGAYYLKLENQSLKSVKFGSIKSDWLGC

MMP-2 [2] = experiment: Substrate phage display with NGS: relative probability (RP) of P3-P1' tetramer clusters; type: biochemical, human; details: MMP2;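 also: ratio of tetramer probability after protease selection to that in naive phage library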
[3] = individual phage substrates, set of 1369 peptides, hyphen in sequence marks cleavage position
[4] = individual phage substrates, set of 1369 peptides, cleavage position marked by hyphen in sequence
[5] = RP of the P3-P1' tetramer contained in the substrate (substrate phage display with NGS)
[6] = individual phage substrate of the set of 1369 peptides, dash in the sequence marks the cleavage position
[7] = individual phage substrate of the set of 1369 peptides, cleavage position marked by '-'
[8] = RP of the P3-P1' tetramer contained in the substrate

Sequence of MMP-9 (P14780 94-707): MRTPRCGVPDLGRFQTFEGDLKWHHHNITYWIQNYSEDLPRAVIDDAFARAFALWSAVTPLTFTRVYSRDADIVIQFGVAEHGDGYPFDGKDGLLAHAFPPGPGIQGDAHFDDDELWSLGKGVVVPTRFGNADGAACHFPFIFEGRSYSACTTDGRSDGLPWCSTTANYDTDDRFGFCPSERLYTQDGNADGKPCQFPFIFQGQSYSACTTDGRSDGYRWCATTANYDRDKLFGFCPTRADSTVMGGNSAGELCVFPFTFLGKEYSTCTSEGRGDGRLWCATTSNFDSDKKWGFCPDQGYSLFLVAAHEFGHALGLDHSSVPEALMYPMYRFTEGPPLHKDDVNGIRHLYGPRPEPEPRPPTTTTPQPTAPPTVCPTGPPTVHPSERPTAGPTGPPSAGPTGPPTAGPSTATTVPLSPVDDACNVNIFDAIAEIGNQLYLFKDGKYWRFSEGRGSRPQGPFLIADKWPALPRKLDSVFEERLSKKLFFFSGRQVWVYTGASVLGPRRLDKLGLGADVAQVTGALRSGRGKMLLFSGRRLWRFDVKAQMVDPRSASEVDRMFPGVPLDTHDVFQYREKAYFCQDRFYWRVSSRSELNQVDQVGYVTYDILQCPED

| Substance | Kobs (MMP-9; [3]) | Kobs (MMP-2 [1]; [4]) | relative probability (RP) (MMP-2 [2]; [5]) | Kobs (MMP-9; [6]) | Kobs (MMP-2 [1]; [7]) | relative probability (RP) (MMP-2 [2]; [8]) |
| --- | --- | --- | --- | --- | --- | --- |
| GSPMH-LITAS | 9740.44 M⁻¹ s⁻¹ | 6688.74 M⁻¹ s⁻¹ | 30.095 | – | – | – |
| GSPYG-LLTAS | – | – | – | 12792.1 M⁻¹ s⁻¹ | 8941.32 M⁻¹ s⁻¹ | 32.9966 |
| GSTRN-LITAS | 990.764 M⁻¹ s⁻¹ | 1870.4 M⁻¹ s⁻¹ | 12.3403 | – | – | – |
| GSVHH-LITAS | – | – | – | 0 M⁻¹ s⁻¹ | 0 M⁻¹ s⁻¹ | 14.1228 |
| GSVMN-LTASG | 2409.72 M⁻¹ s⁻¹ | 3344.37 M⁻¹ s⁻¹ | 18.6016 | – | – | – |
| GSVNY-LVTAS | 0 M⁻¹ s⁻¹ | 0 M⁻¹ s⁻¹ | 8.427 | – | – | – |
| GSVWA-LTASG | 4922.1 M⁻¹ s⁻¹ | 1870.4 M⁻¹ s⁻¹ | 12.7502 | – | – | – |
| GSVWH-VRTAS | 0 M⁻¹ s⁻¹ | 231.616 M⁻¹ s⁻¹ | 0 | – | – | – |
| GTALP-LRTAS | – | – | – | 3253.29 M⁻¹ s⁻¹ | 6396.07 M⁻¹ s⁻¹ | 22.1772 |
| GTLAA-MSTAS | 0 M⁻¹ s⁻¹ | 4205.91 M⁻¹ s⁻¹ | 30.6825 | – | – | – |
| GTLMG-LYTAS | – | – | – | 171.876 M⁻¹ s⁻¹ | 7015.91 M⁻¹ s⁻¹ | 28.5499 |
| GTLRS-LITAS | – | – | – | 1465.65 M⁻¹ s⁻¹ | 12792.1 M⁻¹ s⁻¹ | 15.1373 |
| GTPMQ-LYTAS | – | – | – | 12792.1 M⁻¹ s⁻¹ | 5667.28 M⁻¹ s⁻¹ | 27.6586 |
| GTPSA-LTTAS | 12792.1 M⁻¹ s⁻¹ | 12792.1 M⁻¹ s⁻¹ | 36.1873 | – | – | – |
| GTPYG-LVTAS | – | – | – | 12792.1 M⁻¹ s⁻¹ | 12792.1 M⁻¹ s⁻¹ | 32.9966 |
| GTPYP-LRTAS | 12792.1 M⁻¹ s⁻¹ | 12792.1 M⁻¹ s⁻¹ | 30.8058 | – | – | – |
| GTVRS-LITAS | 2476.66 M⁻¹ s⁻¹ | 8941.32 M⁻¹ s⁻¹ | 12.3051 | – | – | – |
| GVARP-LSTAS | – | – | – | 1610.61 M⁻¹ s⁻¹ | 5090.5 M⁻¹ s⁻¹ | 27.8706 |
| GVHFH-LITAS | – | – | – | 0 M⁻¹ s⁻¹ | 0 M⁻¹ s⁻¹ | 0.09413 |
| GVIRF-LRTAS | – | – | – | 9740.44 M⁻¹ s⁻¹ | 10866.7 M⁻¹ s⁻¹ | 12.1004 |

| Substance | Kobs (MMP-9; [3]) | Kobs (MMP-2 [1]; [4]) | relative probability (RP) (MMP-2 [2]; [5]) | Kobs (MMP-9; [6]) | Kobs (MMP-2 [1]; [7]) | relative probability (RP) (MMP-2 [2]; [8]) |
| --- | --- | --- | --- | --- | --- | --- |
| GVLQK-LVTAS | 0 M⁻¹ s⁻¹ | 654.784 M⁻¹ s⁻¹ | 13.1993 | – | – | – |
| GVLRM-LSTAS | – | – | – | 951.362 M⁻¹ s⁻¹ | 0 M⁻¹ s⁻¹ | 9.0498 |
| GVLYH-LQTAS | 292.668 M⁻¹ s⁻¹ | 171.876 M⁻¹ s⁻¹ | 4.529 | – | – | – |
| GVVLN-LETAS | – | – | – | 1465.65 M⁻¹ s⁻¹ | 1196.62 M⁻¹ s⁻¹ | 18.9065 |
| GVVRG-LSTAS | – | – | – | 4613.14 M⁻¹ s⁻¹ | 9740.44 M⁻¹ s⁻¹ | 29.092 |
| GVYAH-LLTAS | – | – | – | 171.876 M⁻¹ s⁻¹ | 323.705 M⁻¹ s⁻¹ | 18.7061 |
| GVYGA-LRTAS | – | – | – | 142.481 M⁻¹ s⁻¹ | 12792.1 M⁻¹ s⁻¹ | 28.8499 |
| GVYQG-LRTAS | – | – | – | 799.117 M⁻¹ s⁻¹ | 1373.05 M⁻¹ s⁻¹ | 4.332 |
| GVYRH-MRTAS | 0 M⁻¹ s⁻¹ | 0 M⁻¹ s⁻¹ | 0.3212 | – | – | – |
| GWAYN-MRTAS | 2280.5 M⁻¹ s⁻¹ | 292.668 M⁻¹ s⁻¹ | 10.8408 | – | – | – |
| GWPAG-LTTAS | – | – | – | 12792.1 M⁻¹ s⁻¹ | 12792.1 M⁻¹ s⁻¹ | 36.0156 |
| GWPNA-FLTAS | – | – | – | 231.616 M⁻¹ s⁻¹ | 5667.28 M⁻¹ s⁻¹ | 16.8865 |
| GWPRE-LKTAS | – | – | – | 12792.1 M⁻¹ s⁻¹ | 12792.1 M⁻¹ s⁻¹ | 31.9513 |
| GWVSY-LKTAS | 0 M⁻¹ s⁻¹ | 9740.44 M⁻¹ s⁻¹ | 20.2936 | – | – | – |
| GWWMN-LTASG | 836.403 M⁻¹ s⁻¹ | 1071.29 M⁻¹ s⁻¹ | 0 | – | – | – |
| GYARL-LRTAS | – | – | – | 690.17 M⁻¹ s⁻¹ | 484.315 M⁻¹ s⁻¹ | 1.104 |
| GYFGN-LRTAS | 0 M⁻¹ s⁻¹ | 7015.91 M⁻¹ s⁻¹ | 26.0275 | – | – | – |
| GYIQS-LFTAS | 0 M⁻¹ s⁻¹ | 5461.43 M⁻¹ s⁻¹ | 25.2682 | – | – | – |
| GYPLH-LQTAS | 8941.32 M⁻¹ s⁻¹ | 9740.44 M⁻¹ s⁻¹ | 34.1843 | – | – | – |
| GYPRA-FSTAS | – | – | – | 12792.1 M⁻¹ s⁻¹ | 12792.1 M⁻¹ s⁻¹ | 31.8957 |

| Substance | Kobs (MMP-9; [3]) | Kobs (MMP-2 [1]; [4]) | relative probability (RP) (MMP-2 [2]; [5]) | Kobs (MMP-9; [6]) | Kobs (MMP-2 [1]; [7]) | relative probability (RP) (MMP-2 [2]; [8]) |
| --- | --- | --- | --- | --- | --- | --- |
| GYPRN-IGTAS | – | – | – | 7386.83 M⁻¹ s⁻¹ | 8941.32 M⁻¹ s⁻¹ | 31.9621 |
| GYPWA-WRTAS | – | – | – | 4922.1 M⁻¹ s⁻¹ | 1327.88 M⁻¹ s⁻¹ | 10.3227 |
| GYPWS-LSTAS | – | – | – | 7015.91 M⁻¹ s⁻¹ | 2218.08 M⁻¹ s⁻¹ | 28.5684 |
| HAHAS-LTASG | 142.481 M⁻¹ s⁻¹ | 12792.1 M⁻¹ s⁻¹ | 26.2573 | – | – | – |
| HAPLN-FTASG | – | – | – | 10866.7 M⁻¹ s⁻¹ | 12792.1 M⁻¹ s⁻¹ | 28.3679 |
| HAPRG-STASG | – | – | – | 7386.83 M⁻¹ s⁻¹ | 7015.91 M⁻¹ s⁻¹ | 16.3331 |
| HDYFN-LTASG | 0 M⁻¹ s⁻¹ | 27.918 M⁻¹ s⁻¹ | 0 | – | – | – |
| HGLWS-LTASG | 1071.29 M⁻¹ s⁻¹ | 2097.28 M⁻¹ s⁻¹ | 8.3838 | – | – | – |
| HIWQN-LTASG | 0 M⁻¹ s⁻¹ | 654.784 M⁻¹ s⁻¹ | 6.292 | – | – | – |
| HLAYH-MTASG | 6396.07 M⁻¹ s⁻¹ | 2476.66 M⁻¹ s⁻¹ | 3.76 | – | – | – |
| HNANY-LTASG | 0 M⁻¹ s⁻¹ | 1610.61 M⁻¹ s⁻¹ | 3.901 | – | – | – |
| HQWAA-LTASG | – | – | – | 836.403 M⁻¹ s⁻¹ | 12792.1 M⁻¹ s⁻¹ | 24.4484 |
| HRHAH-LTASG | – | – | – | 0 M⁻¹ s⁻¹ | 7015.91 M⁻¹ s⁻¹ | 20.0775 |
| HRLLS-LTASG | – | – | – | 912.511 M⁻¹ s⁻¹ | 6688.74 M⁻¹ s⁻¹ | 2.018 |
| HRPRS-LTASG | – | – | – | 12792.1 M⁻¹ s⁻¹ | 12792.1 M⁻¹ s⁻¹ | 33.3704 |
| HRQQN-LTASG | 0 M⁻¹ s⁻¹ | 912.511 M⁻¹ s⁻¹ | 4.247 | – | – | – |
| HRWSA-LTASG | – | – | – | 619.843 M⁻¹ s⁻¹ | 12792.1 M⁻¹ s⁻¹ | 25.8217 |
| HSPWF-LTASG | 9740.44 M⁻¹ s⁻¹ | 3165.09 M⁻¹ s⁻¹ | 12.628 | – | – | – |
